Key:
[1] = biological target: His-tagged recombinant human TrkA (Homo sapiens (Human), UniProt P04629); experiment: TrkA LanthaScreen Eu Kinase Binding Assay; settings: averaged IC50, TrkA binding assay of Example A; read-out: TrkA Enzyme IC50
Description: TrkA binding activity was determined in a TrkA LanthaScreen™ Eu Kinase Binding Assay. 5 nM His-tagged recombinant human TrkA (6HIS tagged cytoplasmic domain from Invitrogen, Catalog No. PV3144) was incubated with 4 nM Alexa-Fluor® Tracer 236 (Invitrogen Cat. No. PV5592), 2 nM biotinylated anti-His (Invitrogen Cat. No. PV6090), and 2 nM europium-labeled Streptavidin (Invitrogen Cat. No. PV5899), in buffer (25 mM MOPS, pH 7.5, 5 mM MgCl2, 0.005% Triton X-100). Three fold serial dilutions of compounds of the invention in DMSO were added to a final percentage of 2% DMSO. After 60-minute incubation at 22° C., the reaction was measured using the EnVision mutlimode plate reader (PerkinElmer) via TR-FRET dual wavelength detection at […]. The percent of control was calculated using a ratiometric emission factor. The IC50 values were determined by fitting a four parameter model to the percent of control data.
Table A provides averaged IC50 values for compounds of the invention when tested in the assay of Example A, where A represents an averaged IC50 value <100 nM.

[2] = tested on: off-target kinases; experiment: KinaseProfiler full kinase panel (overall); type: biochemical; settings: 10 μM; for activity against off-target kinases: full kinase panel; for selectivity for inhibiting TrkA versus other kinases in the panel: panel of about 230 kinases
Description: Two representative compounds (Example 2, 14) of the invention were tested for off-target kinase activity at a concentration of 10 μM by Millipore, Inc. in their KinaseProfiler™ service against all the kinases available in their full kinase panel. These compounds were run in duplicate at a concentration of ATP near the Km for each individual kinase according to Millipore's specifications. The results are shown in Table B. Data are reported as percent of control (POC) and are the average of the two replicates.
Such a drug profile would represent a safer approach to treating pain, inflammation, cancer and certain skin diseases than has been previously reported.

Chain of His-tagged recombinant human TrkA (P04629 440-796): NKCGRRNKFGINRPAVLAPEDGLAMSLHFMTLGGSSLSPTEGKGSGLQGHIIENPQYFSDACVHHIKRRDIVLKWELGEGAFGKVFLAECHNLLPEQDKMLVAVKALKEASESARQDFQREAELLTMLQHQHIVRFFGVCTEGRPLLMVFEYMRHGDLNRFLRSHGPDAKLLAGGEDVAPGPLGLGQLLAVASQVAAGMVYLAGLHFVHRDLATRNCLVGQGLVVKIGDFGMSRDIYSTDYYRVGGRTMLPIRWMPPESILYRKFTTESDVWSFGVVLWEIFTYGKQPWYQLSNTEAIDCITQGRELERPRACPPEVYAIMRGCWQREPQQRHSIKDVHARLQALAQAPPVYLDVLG

Compound | IC50 [1] | activity against off-target kinases [2] | selectivity for inhibiting TrkA versus other kinases in the panel [2]
COCCN1C[C@@H](NC(=O)Nc2c(C)c(-c3ccc(=O)n(C)c3)nn2-c2ccccc2)[C@H](c2ccc(F)c(Cl)c2)C1 (relative stereo) [Example 22, 1-(trans-4-(3-chloro-4-fluorophenyl)-1-(2-methoxyethyl)pyrrolidin-3-yl)-3-(4-methyl-3-(1-methyl-6-oxo-1,6-di hydropyridin-3-yl)-1-phenyl-1H-pyrazol-5-yl)urea] | < 100 nM |  | 
COCCN1C[C@@H](NC(=O)Nc2c(C)c(-c3ccc(=O)n(C)c3)nn2-c2ccccc2)[C@H](c2ccc(Cl)c(F)c2)C1 (relative stereo) [Example 23, 1-(trans-4-(4-chloro-3-fluorophenyl)-1-(2-methoxyethyl)pyrrolidin-3-yl)-3-(4-methyl-3-(1-methyl-6-oxo-1,6-dihydropyridin-3-yl)-1-phenyl-1H-pyrazol-5-yl)urea] | < 100 nM |  | 
COCCN1C[C@@H](NC(=O)Nc2c(C)c(-c3ccc(=O)n(C)c3)nn2-c2ccccc2)[C@H](c2cc(F)cc(Cl)c2)C1 (relative stereo) [Example 24, 1-(trans-4-(3-chloro-5-fluorophenyl)-1-(2-methoxyethyl)pyrrolidin-3-yl)-3-(4-methyl-3-(1-methyl-6-oxo-1,6-di hydropyridin-3-yl)-1-phenyl-1H-pyrazol-5-yl)urea] | < 100 nM |  | 
COCCN1C[C@@H](NC(=O)Nc2c(C)c(-c3ccc(=O)n(C)c3)nn2-c2ccccc2)[C@H](c2cccc(Cl)c2)C1 (relative stereo) [Example 25, 1-(trans-4-(3-chlorophenyl)-1-(2-methoxyethyl)pyrrolidin-3-yl)-3-(4-methyl-3-(1-methyl-6-oxo-1,6-di hydropyridin-3-yl)-1-phenyl-1H-pyrazol-5-yl)urea] | < 100 nM |  | 
COCCN1C[C@@H](NC(=O)Nc2c(C)c(-c3ccnc(C)c3)nn2-c2ccccc2)[C@H](c2ccc(F)c(F)c2)C1 [Example 2, 1-((3S,4R)-4-(3,4-difluorophenyl)-1-(2-methoxyethyl)pyrrolidin-3-yl)-3-(4-methyl-3-(2-methylpyridin-4-yl)-1-phenyl-1H-pyrazol-5-yl)urea] |  | largely inactive | remarkable and unexpected selectivity
COCCN1C[C@@H](NC(=O)Nc2c(C)c(-c3cnc(C)nc3)nn2-c2ccccc2)[C@H](c2cc(F)cc(F)c2)C1 [Example 14, 1-((3S,4R)-4-(3,5-difluorophenyl)-1-(2-methoxyethyl)pyrrolidin-3-yl)-3-(4-methyl-3-(2-methylpyrimidin-5-yl)-1-phenyl-1H-pyrazol-5-yl)urea] |  | largely inactive | remarkable and unexpected selectivity

— patent US10851080B2, “Methods of treatment using pyrrolidinyl urea, thiourea, guanidine and cyanoguanidine compounds” (Array BioPharma Inc., priority 2012, dated 2020)
